From PubChem BioAssay (NCI) come the findings set out here.

What all share (assay): DTP human tumour cell line panel, 48 h
Test [1] has as its system ACHN renal.
Test [2] deals with SK-MEL-28 melanoma.
In test [3] the test system is UACC-62 melanoma.
Test [4] has as its system MDA-MB-231 breast.
The test system of test [5] is HT29 colon.
In test [6] the test system is MALME-3M melanoma.
Test [7] deals with NCI-H522 lung.
Test [8] concerns RXF 393 renal.
The subject of test [9] is U251 CNS.
Test [10] has as its system UACC-257 melanoma.

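Following 48 hours of exposure in 96-well plates, responses at five concentrations were used to interpolate endpoints linearly. Here, GI50 denotes the concentration required for 50% inhibition of growth. At the TGI there is no net growth.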

As to `COc1cc(C2CC(c3cccc(Nc4ccncc4)c3)=NN2c2cc(Cl)cc(Cl)c2)cc(OC)c1OC` (configuration not stated), the GI50 was 1.66 µM in test [1], 1.76 µM in [2] and 1.69 µM in test [3]. In addition, the TGI in test [1] was 3.03 µM; in test [2], 3.31 µM; in test [3] it was 3.18 µM.

`COc1cc2cc(Oc3ccc(NC(=O)Nc4ccc(F)c(C(F)(F)F)c4)cc3)c(C)nc2cc1OCCN1CCCCC1`: the GI50 was 1.65 µM in [1], 1.67 µM in test [4], 1.65 µM in [2] and 1.71 µM in test [3]. For the same molecule, the TGI amounted to 3.01 µM in test [1], 3.19 µM in test [4], 3.04 µM in test [2] and 3.19 µM in [3].

As to `CCOC(=O)c1ncoc1[C@H]1COC(C)(C)O1`, the total growth inhibition concentration (TGI) in [1], in test [5], in test [6], in test [7], in [8] and in [9] was > 100 µM in each case. Moreover, the TGI in [10] and in [3] was > 100 µM each time.

As for `O=C(c1ccccc1)c1nn(-c2ccc(Cl)cc2)c2nc3nc(-c4ccccc4)cc(=O)n3nc12`, the GI50 in test [1] was 37.4 µM; in test [5], 33.1 µM; in test [6], 3.08 µM; in test [4] it was 26 µM; in test [7], 31.2 µM; in test [8], 68.9 µM. Moreover, the GI50 in test [2] was 53.7 µM; in [9], 31.5 µM; in test [10], 70.7 µM; in [3], 19.8 µM. Further, the TGI in test [1] is > 100 µM; in [5], > 100 µM; in [6], 65.1 µM; in test [4], > 100 µM; in [7], > 100 µM; in [8], > 100 µM. Further, the TGI is > 100 µM in [2], > 100 µM in [9], > 100 µM in [10] and 41.9 µM in test [3].

Broadly, the GI50 is the concentration that inhibits growth by half. As usually defined, the TGI is the concentration at which net growth stops. A lower TGI goes with more potent growth arrest.
